Measurements taken from the kinase profiling compilation of Christmann-Franck et al. (2016).

Key:
Test in all cases: radiometric filter-binding kinase assay, Kinase HotSpot
Details in all cases: compound 0.5 µM; ATP 10 µM
NEK4 (human) = NEK4 (human) (UniProt P51957)
PRKCI (human) = PRKCI (human) (UniProt P41743)
TAOK3 (human) = TAOK3 (human) (UniProt Q9H2K8)
NTRK1 (human) = NTRK1 (human) (UniProt P04629)
FYN (human) = FYN (human) (UniProt P06241)
LIMK1 (human) = LIMK1 (human) (UniProt P53667)
MARK2 (human) = MARK2 (human) (UniProt Q7KZI7)
PAK1 (human) = PAK1 (human) (UniProt Q13153)
RPS6KB2 (human) = RPS6KB2 (human) (UniProt Q9UBS0)
CDC42BPB (human) = CDC42BPB (human) (UniProt Q9Y5S2)
PAK6 (human) = PAK6 (human) (UniProt Q9NQU5)
PRKX (human) = PRKX (human) (UniProt P51817)
GSK3B (human) = GSK3B (human) (UniProt P49841)
STK39 (human) = STK39 (human) (UniProt Q9UEW8)
AKT1 (human) = AKT1 (human) (UniProt P31749)
CDK9 CCNT1 (human) = CDK9 CCNT1 (human) (UniProt P50750+O60563)
CDK2 CCNA2 (human) = CDK2 CCNA2 (human) (UniProt P24941+P20248)
ACVRL1 (human) = ACVRL1 (human) (UniProt P37023)
GSG2 (human) = GSG2 (human) (UniProt Q8TF76)
PAK4 (human) = PAK4 (human) (UniProt O96013)
EPHB2 (human) = EPHB2 (human) (UniProt P29323)
AURKB (human) = AURKB (human) (UniProt Q96GD4)
MATK (human) = MATK (human) (UniProt P42679)
WNK2 (human) = WNK2 (human) (UniProt Q9Y3S1)
PNCK (human) = PNCK (human) (UniProt Q6P2M8)
CSNK1A1 (human) = CSNK1A1 (human) (UniProt P48729)
MUSK (human) = MUSK (human) (UniProt O15146)
EPHA2 (human) = EPHA2 (human) (UniProt P29317)
MET (human) = MET (human) (UniProt P08581)
IKBKB (human) = IKBKB (human) (UniProt O14920)
MERTK (human) = MERTK (human) (UniProt Q12866)
TBK1 (human) = TBK1 (human) (UniProt Q9UHD2)
MAP4K5 (human) = MAP4K5 (human) (UniProt Q9Y4K4)
BRSK1 (human) = BRSK1 (human) (UniProt Q8TDC3)
CSNK2A1 (human) = CSNK2A1 (human) (UniProt P68400)
CSNK1G1 (human) = CSNK1G1 (human) (UniProt Q9HCP0)
MST4 (human) = MST4 (human) (UniProt Q9P289)
EPHA7 (human) = EPHA7 (human) (UniProt Q15375)
LRRK2 (human) = LRRK2 (human) (UniProt Q5S007)
CLK4 (human) = CLK4 (human) (UniProt Q9HAZ1)
TNK2 (human) = TNK2 (human) (UniProt Q07912)
PLK1 (human) = PLK1 (human) (UniProt P53350)

CDK9 CCNT1 (human), sequence (O60563 whole entry, looked up): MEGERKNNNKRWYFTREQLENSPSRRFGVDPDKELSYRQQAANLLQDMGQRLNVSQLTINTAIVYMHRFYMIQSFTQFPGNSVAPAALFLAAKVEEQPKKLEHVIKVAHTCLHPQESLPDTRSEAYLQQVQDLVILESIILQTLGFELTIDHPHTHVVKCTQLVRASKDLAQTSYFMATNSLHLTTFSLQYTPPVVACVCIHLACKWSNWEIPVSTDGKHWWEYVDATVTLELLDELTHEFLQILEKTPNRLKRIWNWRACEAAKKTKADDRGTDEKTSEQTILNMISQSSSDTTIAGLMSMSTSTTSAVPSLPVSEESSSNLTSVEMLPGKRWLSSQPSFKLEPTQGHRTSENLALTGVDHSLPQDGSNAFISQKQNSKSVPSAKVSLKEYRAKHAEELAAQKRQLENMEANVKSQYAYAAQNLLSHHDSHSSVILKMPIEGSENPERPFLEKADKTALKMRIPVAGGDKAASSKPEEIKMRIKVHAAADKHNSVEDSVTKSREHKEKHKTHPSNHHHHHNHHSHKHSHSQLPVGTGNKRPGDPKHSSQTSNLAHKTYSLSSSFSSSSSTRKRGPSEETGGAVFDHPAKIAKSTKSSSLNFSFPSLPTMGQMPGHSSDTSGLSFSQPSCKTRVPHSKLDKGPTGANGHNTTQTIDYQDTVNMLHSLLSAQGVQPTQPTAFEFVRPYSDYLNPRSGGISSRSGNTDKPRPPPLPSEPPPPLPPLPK
CDK9 CCNT1 (human), sequence (P50750 whole entry, looked up): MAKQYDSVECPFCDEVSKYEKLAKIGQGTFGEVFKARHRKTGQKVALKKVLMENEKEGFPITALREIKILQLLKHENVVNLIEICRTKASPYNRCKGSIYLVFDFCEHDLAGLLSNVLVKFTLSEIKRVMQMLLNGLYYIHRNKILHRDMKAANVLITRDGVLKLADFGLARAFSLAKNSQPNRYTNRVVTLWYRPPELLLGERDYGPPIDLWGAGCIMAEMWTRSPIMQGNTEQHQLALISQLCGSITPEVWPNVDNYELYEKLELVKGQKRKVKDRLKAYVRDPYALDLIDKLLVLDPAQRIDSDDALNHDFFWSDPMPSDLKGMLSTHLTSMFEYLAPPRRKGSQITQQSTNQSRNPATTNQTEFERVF
FYN (human), sequence (P06241 whole entry, looked up): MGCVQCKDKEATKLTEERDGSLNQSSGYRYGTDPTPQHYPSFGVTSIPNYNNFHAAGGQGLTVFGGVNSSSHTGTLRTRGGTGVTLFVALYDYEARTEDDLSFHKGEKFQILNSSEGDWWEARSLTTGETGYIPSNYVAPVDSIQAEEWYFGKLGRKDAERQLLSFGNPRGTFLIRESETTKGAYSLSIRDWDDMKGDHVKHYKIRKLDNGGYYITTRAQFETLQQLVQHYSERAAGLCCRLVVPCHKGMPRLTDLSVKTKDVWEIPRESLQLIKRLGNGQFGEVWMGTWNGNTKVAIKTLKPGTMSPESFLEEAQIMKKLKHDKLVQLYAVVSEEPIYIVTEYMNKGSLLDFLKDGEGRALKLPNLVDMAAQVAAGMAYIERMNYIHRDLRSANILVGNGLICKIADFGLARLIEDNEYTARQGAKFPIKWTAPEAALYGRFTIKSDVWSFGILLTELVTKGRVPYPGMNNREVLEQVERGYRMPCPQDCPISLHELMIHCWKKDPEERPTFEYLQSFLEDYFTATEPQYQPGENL
EPHA7 (human), sequence (Q15375 whole entry, looked up): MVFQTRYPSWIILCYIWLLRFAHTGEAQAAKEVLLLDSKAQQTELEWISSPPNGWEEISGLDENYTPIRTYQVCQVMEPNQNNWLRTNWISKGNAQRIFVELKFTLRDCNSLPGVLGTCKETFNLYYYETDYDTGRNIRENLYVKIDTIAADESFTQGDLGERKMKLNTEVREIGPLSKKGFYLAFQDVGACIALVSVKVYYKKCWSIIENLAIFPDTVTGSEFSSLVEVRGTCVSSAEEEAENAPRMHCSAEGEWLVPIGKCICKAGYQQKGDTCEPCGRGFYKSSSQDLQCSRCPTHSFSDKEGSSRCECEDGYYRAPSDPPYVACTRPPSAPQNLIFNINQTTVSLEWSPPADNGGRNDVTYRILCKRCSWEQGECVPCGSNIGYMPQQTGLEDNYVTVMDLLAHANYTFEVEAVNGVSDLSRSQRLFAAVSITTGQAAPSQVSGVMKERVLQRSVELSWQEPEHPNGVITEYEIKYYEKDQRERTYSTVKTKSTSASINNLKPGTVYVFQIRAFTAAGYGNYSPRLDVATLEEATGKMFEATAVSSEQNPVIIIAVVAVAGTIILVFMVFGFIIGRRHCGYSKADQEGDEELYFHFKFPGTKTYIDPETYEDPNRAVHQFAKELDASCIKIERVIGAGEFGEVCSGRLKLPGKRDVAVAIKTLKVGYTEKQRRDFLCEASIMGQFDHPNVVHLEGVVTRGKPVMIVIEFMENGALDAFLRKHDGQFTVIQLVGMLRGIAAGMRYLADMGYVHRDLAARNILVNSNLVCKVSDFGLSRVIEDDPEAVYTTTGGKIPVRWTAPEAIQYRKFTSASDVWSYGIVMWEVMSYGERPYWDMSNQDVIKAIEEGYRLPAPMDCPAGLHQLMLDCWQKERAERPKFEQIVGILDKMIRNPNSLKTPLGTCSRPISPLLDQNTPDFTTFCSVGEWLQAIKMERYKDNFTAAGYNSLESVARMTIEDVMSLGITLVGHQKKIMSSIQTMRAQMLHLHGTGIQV
EPHB2 (human), sequence (P29323 whole entry, looked up): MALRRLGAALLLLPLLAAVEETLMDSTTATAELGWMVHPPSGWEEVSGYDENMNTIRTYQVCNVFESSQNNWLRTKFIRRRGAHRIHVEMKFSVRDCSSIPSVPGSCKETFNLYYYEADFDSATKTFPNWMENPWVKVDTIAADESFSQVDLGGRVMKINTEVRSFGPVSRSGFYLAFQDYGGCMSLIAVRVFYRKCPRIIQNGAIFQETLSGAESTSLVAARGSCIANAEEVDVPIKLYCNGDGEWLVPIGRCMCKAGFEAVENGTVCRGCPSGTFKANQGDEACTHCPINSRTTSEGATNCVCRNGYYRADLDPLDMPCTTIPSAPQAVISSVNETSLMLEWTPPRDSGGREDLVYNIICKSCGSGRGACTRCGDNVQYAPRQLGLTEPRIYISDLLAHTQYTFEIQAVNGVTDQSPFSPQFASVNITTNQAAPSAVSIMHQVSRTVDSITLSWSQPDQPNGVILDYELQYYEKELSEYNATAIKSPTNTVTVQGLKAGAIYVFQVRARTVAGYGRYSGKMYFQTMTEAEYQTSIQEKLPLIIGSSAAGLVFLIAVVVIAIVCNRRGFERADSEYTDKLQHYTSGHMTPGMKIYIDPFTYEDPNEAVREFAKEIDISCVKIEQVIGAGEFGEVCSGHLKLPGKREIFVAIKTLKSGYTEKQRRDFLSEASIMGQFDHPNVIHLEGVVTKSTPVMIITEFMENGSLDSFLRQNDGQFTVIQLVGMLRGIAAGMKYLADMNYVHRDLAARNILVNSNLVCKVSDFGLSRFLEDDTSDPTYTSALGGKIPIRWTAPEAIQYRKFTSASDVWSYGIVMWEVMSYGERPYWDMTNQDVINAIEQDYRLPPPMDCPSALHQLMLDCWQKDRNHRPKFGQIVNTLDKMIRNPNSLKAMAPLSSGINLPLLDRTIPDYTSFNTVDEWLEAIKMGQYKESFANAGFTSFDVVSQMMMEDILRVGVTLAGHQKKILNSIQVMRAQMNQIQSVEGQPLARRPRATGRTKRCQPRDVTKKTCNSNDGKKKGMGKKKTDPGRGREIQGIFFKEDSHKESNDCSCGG
MUSK (human), sequence (O15146 whole entry, looked up): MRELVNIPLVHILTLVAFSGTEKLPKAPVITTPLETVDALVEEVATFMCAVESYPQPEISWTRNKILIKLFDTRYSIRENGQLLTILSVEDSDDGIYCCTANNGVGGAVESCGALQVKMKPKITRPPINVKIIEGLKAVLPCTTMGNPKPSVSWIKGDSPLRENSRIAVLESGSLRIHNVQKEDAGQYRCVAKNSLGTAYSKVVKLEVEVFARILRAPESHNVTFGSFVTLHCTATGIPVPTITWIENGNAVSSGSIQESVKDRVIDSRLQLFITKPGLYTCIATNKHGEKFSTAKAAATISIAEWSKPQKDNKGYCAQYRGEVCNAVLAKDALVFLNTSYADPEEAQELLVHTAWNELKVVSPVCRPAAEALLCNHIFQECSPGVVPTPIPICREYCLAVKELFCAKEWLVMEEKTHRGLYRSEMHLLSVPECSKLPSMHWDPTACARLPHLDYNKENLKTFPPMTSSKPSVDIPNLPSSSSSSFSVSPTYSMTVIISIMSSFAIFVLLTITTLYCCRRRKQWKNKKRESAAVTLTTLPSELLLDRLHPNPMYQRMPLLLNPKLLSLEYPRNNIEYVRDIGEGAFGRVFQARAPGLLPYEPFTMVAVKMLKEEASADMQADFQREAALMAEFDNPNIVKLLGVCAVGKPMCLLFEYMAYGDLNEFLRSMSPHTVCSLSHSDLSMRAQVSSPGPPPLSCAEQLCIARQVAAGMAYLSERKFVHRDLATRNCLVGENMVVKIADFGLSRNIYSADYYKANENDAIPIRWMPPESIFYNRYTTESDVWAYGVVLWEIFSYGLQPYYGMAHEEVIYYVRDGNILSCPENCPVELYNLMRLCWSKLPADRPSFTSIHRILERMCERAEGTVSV
CSNK1A1 (human), sequence (P48729 whole entry, looked up): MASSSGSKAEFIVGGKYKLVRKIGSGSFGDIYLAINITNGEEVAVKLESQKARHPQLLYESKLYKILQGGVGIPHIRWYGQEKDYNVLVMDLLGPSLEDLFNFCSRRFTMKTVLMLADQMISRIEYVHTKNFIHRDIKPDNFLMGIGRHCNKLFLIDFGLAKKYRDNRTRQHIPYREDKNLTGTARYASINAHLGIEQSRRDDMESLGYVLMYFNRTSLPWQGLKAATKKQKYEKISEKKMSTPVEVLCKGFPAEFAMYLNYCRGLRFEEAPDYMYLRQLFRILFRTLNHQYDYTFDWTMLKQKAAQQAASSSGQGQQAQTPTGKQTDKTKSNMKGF

Compound: O=C(O)c1ccc2c3c1cccc3c(=O)n1c3ccccc3nc21
- residual activity (NEK4 (human)): 60.4%
- residual activity (PRKCI (human)): 94.6%
- residual activity (TAOK3 (human)): 93.1%
- residual activity (NTRK1 (human)): 105%
- residual activity (FYN (human)): 94%
- residual activity (LIMK1 (human)): 92.7%
- residual activity (MARK2 (human)): 87.7%
- residual activity (PAK1 (human)): 95.6%
- residual activity (RPS6KB2 (human)): 98%
- residual activity (CDC42BPB (human)): 109%
- residual activity (PAK6 (human)): 103%
- residual activity (PRKX (human)): 93.7%
- residual activity (GSK3B (human)): 100%
- residual activity (STK39 (human)): 102%
- residual activity (AKT1 (human)): 101%
- residual activity (CDK9 CCNT1 (human)): 78.3%
- residual activity (CDK2 CCNA2 (human)): 82.7%
- residual activity (ACVRL1 (human)): 103%
- residual activity (GSG2 (human)): 90.9%
- residual activity (PAK4 (human)): 114%
- residual activity (EPHB2 (human)): 104%
- residual activity (AURKB (human)): 82.5%
- residual activity (MATK (human)): 94%
- residual activity (WNK2 (human)): 106%
- residual activity (PNCK (human)): 101%
- residual activity (CSNK1A1 (human)): 97.6%
- residual activity (MUSK (human)): 47.1%
- residual activity (EPHA2 (human)): 102%
- residual activity (MET (human)): 104%
- residual activity (IKBKB (human)): 109%
- residual activity (MERTK (human)): 77.7%
- residual activity (TBK1 (human)): 20.2%
- residual activity (MAP4K5 (human)): 47%
- residual activity (BRSK1 (human)): 89%
- residual activity (CSNK2A1 (human)): 28.3%
- residual activity (CSNK1G1 (human)): 99.5%
- residual activity (MST4 (human)): 97.8%
- residual activity (EPHA7 (human)): 103%
- residual activity (LRRK2 (human)): 70.1%
- residual activity (CLK4 (human)): 82.8%
- residual activity (TNK2 (human)): 101%
- residual activity (PLK1 (human)): 110%

Compound: N#CCCc1ccc2c(c1)-c1[nH]c3ccc([N+](=O)[O-])cc3c1CC(=O)N2
- residual activity (NEK4 (human)): 104%
- residual activity (PRKCI (human)): 65.3%
- residual activity (TAOK3 (human)): 66%
- residual activity (NTRK1 (human)): 115%
- residual activity (FYN (human)): 52.2%
- residual activity (LIMK1 (human)): 99.9%
- residual activity (MARK2 (human)): 65.5%
- residual activity (PAK1 (human)): 52.1%
- residual activity (RPS6KB2 (human)): 96.1%
- residual activity (CDC42BPB (human)): 54.1%
- residual activity (PAK6 (human)): 104%
- residual activity (PRKX (human)): 78.4%
- residual activity (GSK3B (human)): 2.71%
- residual activity (STK39 (human)): 96.4%
- residual activity (AKT1 (human)): 111%
- residual activity (CDK9 CCNT1 (human)): 28.6%
- residual activity (CDK2 CCNA2 (human)): 2.93%
- residual activity (ACVRL1 (human)): 53.6%
- residual activity (GSG2 (human)): 110%
- residual activity (PAK4 (human)): 86.4%
- residual activity (EPHB2 (human)): 98.5%
- residual activity (AURKB (human)): 80%
- residual activity (MATK (human)): 101%
- residual activity (WNK2 (human)): 112%
- residual activity (PNCK (human)): 107%
- residual activity (CSNK1A1 (human)): 95.1%
- residual activity (MUSK (human)): 63%
- residual activity (EPHA2 (human)): 93.6%
- residual activity (MET (human)): 119%
- residual activity (IKBKB (human)): 96.3%
- residual activity (MERTK (human)): 77.5%
- residual activity (TBK1 (human)): 83.7%
- residual activity (MAP4K5 (human)): 7.61%
- residual activity (BRSK1 (human)): 46.8%
- residual activity (CSNK2A1 (human)): 91.2%
- residual activity (CSNK1G1 (human)): 81.6%
- residual activity (MST4 (human)): 65.1%
- residual activity (EPHA7 (human)): 95.3%
- residual activity (LRRK2 (human)): 73.8%
- residual activity (CLK4 (human)): 77.1%
- residual activity (TNK2 (human)): 75.4%
- residual activity (PLK1 (human)): 101%

Compound: O=C(c1ccccc1)c1ccc(N2CCOCC2)cc1O
- residual activity (NEK4 (human)): 97.7%
- residual activity (PRKCI (human)): 98.3%
- residual activity (TAOK3 (human)): 99%
- residual activity (NTRK1 (human)): 99%
- residual activity (FYN (human)): 106%
- residual activity (LIMK1 (human)): 83.9%
- residual activity (MARK2 (human)): 107%
- residual activity (PAK1 (human)): 91.8%
- residual activity (RPS6KB2 (human)): 100%
- residual activity (CDC42BPB (human)): 90.9%
- residual activity (PAK6 (human)): 93.6%
- residual activity (PRKX (human)): 109%
- residual activity (GSK3B (human)): 118%
- residual activity (STK39 (human)): 94.8%
- residual activity (AKT1 (human)): 102%
- residual activity (CDK9 CCNT1 (human)): 97.9%
- residual activity (CDK2 CCNA2 (human)): 99.3%
- residual activity (ACVRL1 (human)): 105%
- residual activity (GSG2 (human)): 98.5%
- residual activity (PAK4 (human)): 104%
- residual activity (EPHB2 (human)): 94.9%
- residual activity (AURKB (human)): 95.5%
- residual activity (MATK (human)): 92.5%
- residual activity (WNK2 (human)): 100%
- residual activity (PNCK (human)): 101%
- residual activity (CSNK1A1 (human)): 110%
- residual activity (MUSK (human)): 101%
- residual activity (EPHA2 (human)): 104%
- residual activity (MET (human)): 115%
- residual activity (IKBKB (human)): 105%
- residual activity (MERTK (human)): 94.5%
- residual activity (TBK1 (human)): 100%
- residual activity (MAP4K5 (human)): 100%
- residual activity (BRSK1 (human)): 103%
- residual activity (CSNK2A1 (human)): 91.1%
- residual activity (CSNK1G1 (human)): 105%
- residual activity (MST4 (human)): 101%
- residual activity (EPHA7 (human)): 98.4%
- residual activity (LRRK2 (human)): 95.4%
- residual activity (CLK4 (human)): 101%
- residual activity (TNK2 (human)): 104%
- residual activity (PLK1 (human)): 104%
